Measurements reported in patent US8227501B2, “1,6-dihydro-2H-3-oxa-6-aza-as-indacene compounds” (Ferrer Internacional, S.A., priority 2008, dated 2012).

Biological target: T1, recombinant human-MT1 receptor (Homo sapiens, UniProt P48039)
T1 construct: expressed in transfected cells; host or cells: unnamed cell line stably overexpressing human MT1, co-expressing mitochondrial apoaequorin and Gα16
Assay: In vitro MT1 screening, agonist activity (AequoScreen aequorin luminescence)
Type: cell-based
Settings: percentage of activity relative to the reference agonist at the EC100 concentration; for activation at 0.001 µM: read-out: Agonism percentages of MT1, 1 nM; for activation at 0.1 µM: read-out: Agonism percentages of MT1, 100 nM
Description: To proceed with compound screening over MT1 receptor, a cell line characterised by a stable overexpression of recombinant human-MT1 receptor was used. This line co-expresses mitochondrial apoaequorin and subunit Gα16.
Subunit Gα16 belongs to […], in which intracelular signal transduction is produced via phospholipase (PLC). Activation of PLC produces an increment of inositol-triphosphate levels and intracellular calcium levels. This increment in calcium levels is, therefore, independent and full compatible with the signal transduction of MT1 receptor.
After binding to calcium, aequorin carries out the oxidation of colenterazine to colenteramide, a luminescent reaction.
Assay protocol for agonist screening consists in an overnight incubation of cells and colenterazine, being performed by an AequoScreen™ system instrument, PerkinElmer, USA. After that this mixture was injected over a plate that contains the solution of the compounds to screen and luminescence was immediately read. Only in case of antagonism screening, after 15-30 min of the first injection the reference agonist was added in the same well, and then luminescence was measured.
Agonist activity was calculated as percentage of activity relative to the reference agonist at the EC100 concentration. Activity of antagonists was expressed as the inhibition percentage over the activity of reference agonist at its EC80, concentration.

T1 sequence (P48039 whole entry): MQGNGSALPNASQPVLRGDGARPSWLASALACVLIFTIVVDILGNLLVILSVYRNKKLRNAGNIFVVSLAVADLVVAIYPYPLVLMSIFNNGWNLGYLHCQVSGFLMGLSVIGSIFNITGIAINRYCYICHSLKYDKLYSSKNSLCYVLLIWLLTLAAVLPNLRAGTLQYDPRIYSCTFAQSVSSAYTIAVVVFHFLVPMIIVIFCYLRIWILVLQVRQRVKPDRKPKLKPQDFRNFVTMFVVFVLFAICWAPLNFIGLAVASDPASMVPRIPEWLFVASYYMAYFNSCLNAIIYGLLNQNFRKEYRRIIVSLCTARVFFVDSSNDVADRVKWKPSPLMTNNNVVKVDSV

Compound	activation at 0.001 µM (1 nM compound) [%]	activation at 0.1 µM (100 nM compound) [%]	Agonism percentages of MT1, 1 nM (1 nM compound) [%]	Agonism percentages of MT1, 100 nM (100 nM compound) [%]
CCC(=O)NCC[C@@H]1CCc2ccc3c(c21)CCO3 [Ramelteon, N-[2-[(8S)-1,6,7,8-tetrahydro-2H-indeno[5,4-b]furan-8-yl)ethyl]propionamide, reference compound]	47.4	118		
CC1Cc2c(c(F)cc3[nH]cc(C(C)CNC(=O)C(C)C)c23)O1 (centres unmarked) [Compound 34, N-[2-(4-Fluoro-2-methyl-1,6-dihydro-2H-3-oxa-6-aza-as-indacen-8-yl)-propyl]-isobutyramide]	18.4	95.8		
CCOC(=O)NCCc1c[nH]c2cc(F)c3c(c12)CC(C)O3 (centres unmarked) [Compound 30, [2-(4-Fluoro-2-methyl-1,6-dihydro-2H-3-oxa-6-aza-as-indacen-8-yl)-ethyl]-carbamic acid ethyl ester]	7.1	68.1		
CCCC(=O)NCC(C)c1c[nH]c2cc(F)c3c(c12)CC(C)O3 (centres unmarked) [Compound 19, N-[2-(4-Fluoro-2-methyl-1,6-dihydro-2H-3-oxa-6-aza-as-indacen-8-yl)-propyl]-butyramide]	27.8	96.8		
CC(C)C(=O)NCCc1c[nH]c2cc(F)c3c(c12)CCO3 [Compound 16, N-[2-(4-Fluoro-1,6-dihydro-2H-3-oxa-6-aza-as-indacen-8-yl)-ethyl]-isobutyramide]	23	82.3		
CC(=O)NCC(C)c1c[nH]c2cc(F)c3c(c12)CC(C)O3 (centres unmarked) [Compound 21, N-[2-(4-Fluoro-2-methyl-1,6-dihydro-2H-3-oxa-6-aza-as-indacen-8-yl)-propyl]-acetamide]	43.2	92.6		
CCCC(=O)NCCc1c[nH]c2cc(F)c3c(c12)CCO3 [Compound 15, N-[2-(4-Fluoro-1,6-dihydro-2H-3-oxa-6-aza-as-indacen-8-yl)-ethyl]-butiramide]			43.0	108.2
CCCC(=O)NCCc1c[nH]c2cc(F)c3c(c12)CC(C)O3 (centres unmarked) [Compound 24, N-[2-(4-Fluoro-2-methyl-1,6-dihydro-2H-3-oxa-6-aza-as-indacen-8-yl)-ethyl]-butyramide]	42.1	99.8		
CCC(=O)NCCc1c[nH]c2cc(F)c3c(c12)CCO3 [Compound 14, N-[2-(4-Fluoro-1,6-dihydro-2H-3-oxa-6-aza-as-indacen-8-yl)-ethyl]-propionamide]	55.1	102		
CCCCC(=O)NCCc1c[nH]c2cc(F)c3c(c12)CC(C)O3 (centres unmarked) [Compound 25, Pentanoic acid [2-(4-fluoro-2-methyl-1,6-dihydro-2H-3-oxa-6-aza-as-indacen-8-yl)-ethyl]-amide]	31.9	98		
CC(C)CC(=O)NCC(C)c1c[nH]c2cc(F)c3c(c12)CC(C)O3 (centres unmarked) [Compound 36, N-[2-(4-Fluoro-2-methyl-1,6-dihydro-2H-3-oxa-6-aza-as-indacen-8-yl)-propyl]-3-methyl-butyramide]	20.9	89.7		
CC(C)CC(=O)NCCc1c[nH]c2cc(F)c3c(c12)CC(C)O3 (centres unmarked) [Compound 31, N-[2-(4-Fluoro-2-methyl-1,6-dihydro-2H-3-oxa-6-aza-as-indacen-8-yl)-ethyl]-3-methyl-butyramide]	22.3	90.4		
CCC(=O)NCC(C)c1c[nH]c2cc(F)c3c(c12)CC(C)O3 (centres unmarked) [Compound 20, N-[2-(4-Fluoro-2-methyl-1,6-dihydro-2H-3-oxa-6-aza-as-indacen-8-yl)-propyl]-propionamide]	30.2	94.3		
CC1Cc2c(c(F)cc3[nH]cc(C(C)CNC(=O)C(C)F)c23)O1 (centres unmarked) [Compound 43, 2-Fluoro-N-[2-(4-fluoro-2-methyl-1,6-dihydro-2H-3-oxa-6-aza-as-indacen-8-yl)-propyl]-propionamide]	30.6	92.8		
COC(=O)NCC(C)c1c[nH]c2cc(F)c3c(c12)CC(C)O3 (centres unmarked) [Compound 40, [2-(4-Fluoro-2-methyl-1,6-dihydro-2H-3-oxa-6-aza-as-indacen-8-yl)-propyl]-carbamic acid methyl ester]	24	95.2		
CC1Cc2c(c(F)cc3[nH]cc(C(C)CNC(=O)C(C)(C)C)c23)O1 (centres unmarked) [Compound 37, N-[2-(4-Fluoro-2-methyl-1,6-dihydro-2H-3-oxa-6-aza-as-indacen-8-yl)-propyl]-2,2-dimethyl-propionamide]	6.6	52.8		
CC1Cc2c(c(F)cc3[nH]cc(C(C)CNC(=O)C4CC4)c23)O1 (centres unmarked) [Compound 35, Cyclopropanecarboxylic acid [2-(4-fluoro-2-methyl-1,6-dihydro-2H-3-oxa-6-aza-as-indacen-8-yl)-propyl]-amide]	30.5	94		
CC(=O)NCCc1c[nH]c2cc(F)c3c(c12)CCO3 [Compound 13, N-[2-(4-Fluoro-1,6-dihydro-2H-3-oxa-6-aza-as-indacen-8-yl)-ethyl]-acetamide]	37.7	92.9		
O=C(NCCc1c[nH]c2cc(F)c3c(c12)CCO3)C1CC1 [Compound 17, Cyclopropanecarboxylic acid [2-(4-fluoro-1,6-dihydro-2H-3-oxa-6-aza-as-indacen-8-yl)-ethyl]-amide]	43.8	93.2		
CCOC(=O)NCC(C)c1c[nH]c2cc(F)c3c(c12)CC(C)O3 (centres unmarked) [Compound 41, [2-(4-Fluoro-2-methyl-1,6-dihydro-2H-3-oxa-6-aza-as-indacen-8-yl)-propyl]-carbamic acid ethyl ester]	13.1	78.9		
CCNC(=O)NCC(C)c1c[nH]c2cc(F)c3c(c12)CC(C)O3 (centres unmarked) [Compound 42, 1-Ethyl-3-[2-(4-fluoro-2-methyl-1,6-dihydro-2H-3-oxa-6-aza-as-indacen-8-yl)-propyl]-urea]	19.7	87.8		

Now from value to compound:

activation at 0.001 µM (1 nM compound) [%]	activation at 0.1 µM (100 nM compound) [%]	Agonism percentages of MT1, 1 nM (1 nM compound) [%]	Agonism percentages of MT1, 100 nM (100 nM compound) [%]	Compound
25.7	84.8			CC1Cc2c(c(F)cc3[nH]cc(CCNC(=O)C(C)C)c23)O1 (centres unmarked) [Compound 26, N-[2-(4-Fluoro-2-methyl-1,6-dihydro-2H-3-oxa-6-aza-as-indacen-8-yl)-ethyl]-isobutyramide]
38.6	93.1			CC1Cc2c(c(F)cc3[nH]cc(CCNC(=O)C(C)F)c23)O1 (centres unmarked) [Compound 32, 2-Fluoro-N-[2-(4-fluoro-2-methyl-1,6-dihydro-2H-3-oxa-6-aza-as-indacen-8-yl)-ethyl]-propionamide]
50.5	96.8			CC(=O)NCCc1c[nH]c2cc(F)c3c(c12)CC(C)O3 (centres unmarked) [Compound 22, N-[2-(4-Fluoro-2-methyl-1,6-dihydro-2H-3-oxa-6-aza-as-indacen-8-yl)-ethyl]-acetamide]
39.1	99.7			CCC(=O)NCCc1c[nH]c2cc(F)c3c(c12)CC(C)O3 (centres unmarked) [Compound 23, N-[2-(4-Fluoro-2-methyl-1,6-dihydro-2H-3-oxa-6-aza-as-indacen-8-yl)-ethyl]-propionamide]
36.1	97.2			CC1Cc2c(c(F)cc3[nH]cc(CCNC(=O)C(F)(F)F)c23)O1 (centres unmarked) [Compound 28, 2,2,2-Trifluoro-N-[2-(4-fluoro-2-methyl-1,6-dihydro-2H-3-oxa-6-aza-as-indacen-8-yl)-ethyl]-acetamide]
26.6	87.5			CCNC(=O)NCCc1c[nH]c2cc(F)c3c(c12)CC(C)O3 (centres unmarked) [Compound 33, 1-Ethyl-3-[2-(4-fluoro-2-methyl-1,6-dihydro-2H-3-oxa-6-aza-as-indacen-8-yl)-ethyl]-urea]
36.9	101			CC1Cc2c(c(F)cc3[nH]cc(C(C)CNC(=O)C(F)(F)F)c23)O1 (centres unmarked) [Compound 38, 2,2,2-Trifluoro-N-[2-(4-fluoro-2-methyl-1,6-dihydro-2H-3-oxa-6-aza-as-indacen-8-yl)-propyl]-acetamide]
17.4	77.3			COC(=O)NCCc1c[nH]c2cc(F)c3c(c12)CC(C)O3 (centres unmarked) [Compound 29, [2-(4-Fluoro-2-methyl-1,6-dihydro-2H-3-oxa-6-aza-as-indacen-8-yl)-ethyl]-carbamic acid methyl ester]
59.8	105			O=C(NCCc1c[nH]c2cc(F)c3c(c12)CCO3)C(F)(F)F [Compound 18, 2,2,2-Trifluoro-N-[2-(4-fluoro-1,6-dihydro-2H-3-oxa-6-aza-as-indacen-8-yl)-ethyl]-acetamide]
33.8	91.1			CC1Cc2c(c(F)cc3[nH]cc(CCNC(=O)C4CC4)c23)O1 (centres unmarked) [Compound 27, Cyclopropanecarboxylic acid [2-(4-fluoro-2-methyl-1,6-dihydro-2H-3-oxa-6-aza-as-indacen-8-yl)-ethyl]-amide]
